Holding throughout (assay type): physicochemical
Data set [1] is described as follows: Color rendering property (hue change under tungsten light versus standard light source, visual). The note with it: hue change under tungsten light compared with standard light source. As for the experimental part: (§1) A liquid having the following formulation was prepared and passed through a 0.45 μm membrane filter to obtain an aqueous ink composition for ink jet printers.
(§2) An ink jet recording was conducted on three different papers, i.e. plain papers (Canon printer paper A4 (TLB5A4S)), ink jet papers A (Color BJ Paper LC 101; ex. Canon) and ink jet papers B (coated papers for ink jet printer STX73 A4; ex. Sharp) by means of an ink jet printer (trade name NOVA JET III; ex. ENCAD). The thus-recorded images were tested with respect to the resistances to light and water and a color rendering property.
Discoloration was judged by the visual examination by comparing the hue change under the tungsten light with that under the standard light source.

The nature of data set [2]: Test for resistance to water of the recorded images (immersion in water, visual examination of dropout). Also on record: key to water fastness plain paper: ∘: Less amount of the compound was dropped out.; Δ: About half of the compound was dropped out.; X: Large amount of the compound was dropped out. The settings on record: immersed in water 2 minutes with mild stirring, dried; for water fastness ink jet paper A: ink jet print on ink jet paper A; for water fastness ink jet paper B: ink jet print on ink jet paper B; for water fastness plain paper: ink jet print on plain paper. The protocol: as §1, §2
Test specimen was immersed in water contained in a beaker with mild stirring for 2 minutes and dried. Amount of the compound was observed by the visual examination before and after the immersion, and dropout of the compound was judged.

Data set [3] can be described thus: Test for resistance to light of the recorded images (carbon arc fade meter, Blue Scale JIS L-0841). The note with it: 20 hours carbon arc fade meter; for light fastness (rank) ink jet paper A: ink jet print on ink jet paper A (Color BJ Paper LC 101, Canon); for light fastness (rank) ink jet paper B: ink jet print on ink jet paper B (coated paper STX73 A4, Sharp); for light fastness (rank) plain paper: ink jet print on plain paper (Canon TLB5A4S). As for the experimental part:
as §1, §2
The recorded images were irradiated with light for 20 hours by means of a carbon arc fade meter (ex. SUGA Shikenkisha). Light fastness was judged according to the Blue Scale for light resistance standard as defined in JIS L-0841.

The values that follow come from patent US6409810B1, “Water-soluble trisazo compounds, aqueous ink composition and colored article” (Nippon Kayaku Kabushiki Kaisha, priority 1997, dated 2002).

On to `COc1cc(N=Nc2cc(S(=O)(=O)O)cc3cc(S(=O)(=O)O)cc(O)c23)c(NC(C)=O)cc1N=Nc1c(S(=O)(=O)O)cc2cc(S(=O)(=O)O)c(N=Nc3ccc(N)cc3O)cc2c1O` [compound 0231], for which the color rendering property entry in data set [1] is “◯”. In data set [2], the “water fastness ink jet paper A” value was “◯”, the “water fastness ink jet paper B” value is “◯” and the “water fastness plain paper” value is given as “Δ”. Moreover, in data set [3], the “light fastness (rank) ink jet paper A” value is 4 rank, the “light fastness (rank) ink jet paper B” value came to 5 rank and the “light fastness (rank) plain paper” value is reported as 4-5 rank.

With `COc1cc(N=Nc2cc(S(=O)(=O)O)cc3cc(S(=O)(=O)O)cc(O)c23)c(NC(C)=O)cc1N=Nc1c(S(=O)(=O)O)cc2ccc(N=Nc3ccc(N)cc3O)cc2c1O` [compound 0011], the color rendering property result in data set [1] is given as “◯”. Besides, in data set [2], the “water fastness ink jet paper A” value is “◯”, the “water fastness ink jet paper B” value is “◯” and the “water fastness plain paper” value was “Δ˜◯”. In data set [3], the “light fastness (rank) ink jet paper A” value was found to be 4 rank, the “light fastness (rank) ink jet paper B” value came out at 4 rank and the “light fastness (rank) plain paper” value is 4-5 rank.

For the compound `Nc1ccc2cc(S(=O)(=O)O)c(N=Nc3ccc(N=Nc4cc(C(=O)O)cc(C(=O)O)c4)c4ccccc34)c(O)c2c1` [compound 2, reference compound], in data set [2], the “water fastness ink jet paper A” value was “◯”, the “water fastness ink jet paper B” value is “◯” and the “water fastness plain paper” value is “◯”. In addition, in data set [3], the “light fastness (rank) ink jet paper A” value is on record as 2 rank, the “light fastness (rank) ink jet paper B” value is on record as 4 rank and the “light fastness (rank) plain paper” value is recorded as 4 rank.

`COc1cc(N=Nc2cc(S(=O)(=O)O)cc3cc(S(=O)(=O)O)cc(O)c23)c(C)cc1N=Nc1c(S(=O)(=O)O)cc2ccc(N=Nc3ccc(N)cc3O)cc2c1O` [compound 0002]: the color rendering property result in data set [1] was “◯”. In addition, in data set [2], the “water fastness ink jet paper A” value is on record as “◯”, the “water fastness ink jet paper B” value is recorded as “◯” and the “water fastness plain paper” value is recorded as “Δ˜◯”. Also, in data set [3], the “light fastness (rank) ink jet paper A” value is listed as 4 rank, the “light fastness (rank) ink jet paper B” value is 5 rank and the “light fastness (rank) plain paper” value is 4-5 rank.

Take `COc1cc(N=Nc2cc(S(=O)(=O)O)cc3cc(S(=O)(=O)O)cc(O)c23)c(C)cc1N=Nc1c(S(=O)(=O)O)cc2ccc(N=Nc3ccc(N)cc3N)cc2c1O` [compound 0001]: the color rendering property result in data set [1] was “◯”. For the same compound, in data set [2], the “water fastness ink jet paper A” value is given as “◯”, the “water fastness ink jet paper B” value was “◯” and the “water fastness plain paper” value is listed as “Δ˜◯”. Moreover, in data set [3], the “light fastness (rank) ink jet paper A” value was 4-5 rank, the “light fastness (rank) ink jet paper B” value came to 5 rank and the “light fastness (rank) plain paper” value is listed as 5 rank.

On to `COc1cc(N=Nc2cc(S(=O)(=O)O)cc3cc(S(=O)(=O)O)cc(O)c23)c(C)cc1N=Nc1c(S(=O)(=O)O)cc2ccc(N=Nc3ccc(O)cc3O)cc2c1O` [compound 0003], for which the color rendering property entry in data set [1] is “◯”. Also, in data set [2], the “water fastness ink jet paper A” value is reported as “◯”, the “water fastness ink jet paper B” value is listed as “◯” and the “water fastness plain paper” value is “Δ”. Moreover, in data set [3], the “light fastness (rank) ink jet paper A” value was 3-4 rank, the “light fastness (rank) ink jet paper B” value is 4-5 rank and the “light fastness (rank) plain paper” value is reported as 4-5 rank.

Regarding `COc1cc(N=Nc2cc(S(=O)(=O)O)cc3cc(S(=O)(=O)O)cc(O)c23)c(N)cc1N=Nc1c(S(=O)(=O)O)cc2ccc(N=Nc3cc(S(=O)(=O)O)c(N)cc3N)cc2c1O` [compound 0048], the color rendering property result in data set [1] was “◯”. In data set [2], the “water fastness ink jet paper A” value is “◯”, the “water fastness ink jet paper B” value was “◯” and the “water fastness plain paper” value is reported as “◯”. Besides, in data set [3], the “light fastness (rank) ink jet paper A” value worked out at 4 rank, the “light fastness (rank) ink jet paper B” value was 5 rank and the “light fastness (rank) plain paper” value was 4-5 rank.

As to `COc1cc(N=Nc2cc(S(=O)(=O)O)cc3cc(S(=O)(=O)O)cc(O)c23)c(N)cc1N=Nc1c(S(=O)(=O)O)cc2cc(S(=O)(=O)O)c(N=Nc3ccc(N)cc3O)cc2c1O` [compound 0264], in data set [1], the color rendering property result is “◯”. In data set [2], the “water fastness ink jet paper A” value is on record as “◯”, the “water fastness ink jet paper B” value is listed as “◯” and the “water fastness plain paper” value is recorded as “◯”. Besides, in data set [3], the “light fastness (rank) ink jet paper A” value is 4 rank, the “light fastness (rank) ink jet paper B” value was 5 rank and the “light fastness (rank) plain paper” value is reported as 4-5 rank.

`COCCOc1cc(N=Nc2cc(S(=O)(=O)O)cc3cc(S(=O)(=O)O)cc(O)c23)c(NC(C)=O)cc1N=Nc1c(S(=O)(=O)O)cc2ccc(N=Nc3ccc(N)cc3N)cc2c1O` [compound 0019]: the color rendering property entry in data set [1] is recorded as “◯”. Besides, in data set [2], the “water fastness ink jet paper A” value was “◯”, the “water fastness ink jet paper B” value was “◯” and the “water fastness plain paper” value was “Δ˜◯”. For the same compound, in data set [3], the “light fastness (rank) ink jet paper A” value was determined as 5 rank, the “light fastness (rank) ink jet paper B” value is recorded as 5 rank and the “light fastness (rank) plain paper” value was found to be 5 rank.

On to `O=S(=O)(O)c1cc(O)c2c(N=Nc3ccc(N=Nc4c(S(=O)(=O)O)cc5ccc(N=Nc6ccc(O)cc6O)cc5c4O)c4cc(S(=O)(=O)O)ccc34)cc(S(=O)(=O)O)cc2c1` [compound 0025], for which the color rendering property entry in data set [1] is “◯”. Moreover, in data set [2], the “water fastness ink jet paper A” value is recorded as “◯”, the “water fastness ink jet paper B” value was “◯” and the “water fastness plain paper” value is “x˜Δ”. Also, in data set [3], the “light fastness (rank) ink jet paper A” value is 3 rank, the “light fastness (rank) ink jet paper B” value is 4 rank and the “light fastness (rank) plain paper” value is recorded as 4-5 rank.

On to `COc1cc(N=Nc2cc(S(=O)(=O)O)cc3cc(S(=O)(=O)O)cc(O)c23)c(C)cc1N=Nc1c(S(=O)(=O)O)cc2ccc(N=Nc3ccc(NCC(=O)O)cc3NCC(=O)O)cc2c1O` [compound 0007], for which, in data set [1], the color rendering property result is listed as “◯”. In data set [2], the “water fastness ink jet paper A” value is “◯”, the “water fastness ink jet paper B” value is recorded as “◯” and the “water fastness plain paper” value is reported as “◯”. In addition, in data set [3], the “light fastness (rank) ink jet paper A” value is on record as 3-4 rank, the “light fastness (rank) ink jet paper B” value came out at 4 rank and the “light fastness (rank) plain paper” value came to 4 rank.

With `COc1cc(N=Nc2cc(S(=O)(=O)O)cc3cc(S(=O)(=O)O)cc(O)c23)c(NC(C)=O)cc1N=Nc1c(S(=O)(=O)O)cc2ccc(N=Nc3cc(S(=O)(=O)O)c(N)cc3N)cc2c1O` [compound 0014], in data set [1], the color rendering property result is “◯”. Besides, in data set [2], the “water fastness ink jet paper A” value was “◯”, the “water fastness ink jet paper B” value is recorded as “◯” and the “water fastness plain paper” value is given as “Δ”. Also, in data set [3], the “light fastness (rank) ink jet paper A” value is on record as 5 rank, the “light fastness (rank) ink jet paper B” value amounted to 5 rank and the “light fastness (rank) plain paper” value is 5 rank.

`COc1cc(N=Nc2cc(S(=O)(=O)O)cc3cc(S(=O)(=O)O)cc(O)c23)c(NC(C)=O)cc1N=Nc1c(S(=O)(=O)O)cc2cc(S(=O)(=O)O)c(N=Nc3cc(S(=O)(=O)O)c(N)cc3N)cc2c1O` [compound 0234]: in data set [1], the color rendering property entry is listed as “◯”. Moreover, in data set [2], the “water fastness ink jet paper A” value was “◯”, the “water fastness ink jet paper B” value was “◯” and the “water fastness plain paper” value is recorded as “Δ”. Besides, in data set [3], the “light fastness (rank) ink jet paper A” value was 5 rank, the “light fastness (rank) ink jet paper B” value was found to be 5 rank and the “light fastness (rank) plain paper” value amounted to 5 rank.
